Laboratory results from patent CN114848615A, “和厚朴酚小分子自主装纳米粒及制备方法” (Tianjin University, priority 2022, dated 2022).

Experiment: SEM/TEM characterisation and appearance/distribution in water
Format: physicochemical
Settings: in words

C=CCc1ccc(O)c(-c2ccc(O)c(CC=C)c2)c1 [HK, 和厚朴酚]
distribution/appearance in water: 形成浑浊的白色浆液
